Source: PubChem BioAssay AID1963421 (Molecular Pharmacology Branch, DTP, NCI, 2024)

Test system: 519858-162-T-J1-PDC complex spheroid growth, % test/control
Assay: Anticancer human tumor 519858-162-T-J1-PDC patient-derived colon adenocarcinoma cell line growth inhibition [Asc]
Settings: for IC50: curve of first compound; for viability, T/C: stronger effect = lower value
Outline: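 Stromal components (HUVEC and hMSC) are co-assembled with the cancer cells into multicellular spheroids. Drugs are then added singly or paired, at concentrations falling by half-log increments from a clinically achievable maximum, capped at 10 microM without known Cmax.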

[1] = second compound 0.0316 µM, first compound 0.0316 µM
[2] = second compound 0.0316 µM, first compound 0.1 µM
[3] = second compound 0.0316 µM, first compound 0.316 µM
[4] = second compound 0.0316 µM, first compound 1 µM
[5] = second compound 0.0316 µM, first compound 3.16 µM
[6] = second compound 0.0316 µM, first compound 10 µM
[7] = second compound 0.1 µM, first compound 0.0316 µM
[8] = second compound 0.1 µM, first compound 0.1 µM
[9] = second compound 0.1 µM, first compound 0.316 µM
[10] = second compound 0.1 µM, first compound 1 µM
[11] = second compound 0.1 µM, first compound 3.16 µM
[12] = second compound 0.1 µM, first compound 10 µM
[13] = second compound 0.316 µM, first compound 0.0316 µM
[14] = second compound 0.316 µM, first compound 0.1 µM
[15] = second compound 0.316 µM, first compound 0.316 µM
[16] = second compound 0.316 µM, first compound 1 µM
[17] = second compound 0.316 µM, first compound 3.16 µM
[18] = second compound 0.316 µM, first compound 10 µM
[19] = second compound 1 µM, first compound 0.0316 µM
[20] = second compound 1 µM, first compound 0.1 µM
[21] = second compound 1 µM, first compound 0.316 µM
[22] = second compound 1 µM, first compound 1 µM
[23] = second compound 1 µM, first compound 3.16 µM
[24] = second compound 1 µM, first compound 10 µM
[25] = second compound 3.16 µM, first compound 0.0316 µM
[26] = second compound 3.16 µM, first compound 0.1 µM
[27] = second compound 3.16 µM, first compound 0.316 µM
[28] = second compound 3.16 µM, first compound 1 µM
[29] = second compound 3.16 µM, first compound 3.16 µM
[30] = second compound 3.16 µM, first compound 10 µM
[31] = second compound 10 µM, first compound 0.0316 µM
[32] = second compound 10 µM, first compound 0.1 µM
[33] = second compound 10 µM, first compound 0.316 µM
[34] = second compound 10 µM, first compound 1 µM
[35] = second compound 10 µM, first compound 3.16 µM
[36] = second compound 10 µM, first compound 10 µM
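Further: seven day drug exposure begun three days after spheroid seeding.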
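Wherever viability, T/C is given: 100% = DMSO vehicle wells and lower values mean less viable spheroid.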

## C=C(F)C(=O)N1CCN(c2nc(OCC3CCCN3C)nc3c2CCN(c2cccc4cccc(Cl)c24)C3)CC1CC#N (stereo unspecified) + Cc1c(S(C)(=O)=O)c(-c2cc(F)cc(N3CCN(c4ccc(NS(=O)(=O)c5ccc(NC(CCN6CCC(C(=O)OCCCP(=O)(O)O)CC6)CSc6ccccc6)c(S(=O)(=O)C(F)(F)F)c5)cc4)CC3)c2)c(-c2ccc(Cl)cc2)n1C(C)C
Second compound 0.0316 µM
  IC50: < 0.0316 µM
Second compound 0.1 µM
  IC50: 9.04 µM
Second compound 0.316 µM
  IC50: 6.37 µM
Second compound 1 µM
  IC50: 5.09 µM
Second compound 3.16 µM
  IC50: 2.51 µM
Second compound 10 µM
  IC50: 2.69 µM
[1]
  viability, T/C: 43.8%
[2]
  viability, T/C: 78.2%
[3]
  viability, T/C: 94.3%
[4]
  viability, T/C: 98.9%
[5]
  viability, T/C: 82.6%
[6]
  viability, T/C: 64.9%
[7]
  viability, T/C: 115%
[8]
  viability, T/C: 111%
[9]
  viability, T/C: 103%
[10]
  viability, T/C: 89%
[11]
  viability, T/C: 84.8%
[12]
  viability, T/C: 45.3%
[13]
  viability, T/C: 95.9%
[14]
  viability, T/C: 102%
[15]
  viability, T/C: 88%
[16]
  viability, T/C: 70.2%
[17]
  viability, T/C: 61.9%
[18]
  viability, T/C: 43.5%
[19]
  viability, T/C: 102%
[20]
  viability, T/C: 84.7%
[21]
  viability, T/C: 116%
[22]
  viability, T/C: 86.5%
[23]
  viability, T/C: 62.8%
[24]
  viability, T/C: 33.2%
[25]
  viability, T/C: 86.9%
[26]
  viability, T/C: 74.1%
[27]
  viability, T/C: 81.8%
[28]
  viability, T/C: 61.1%
[29]
  viability, T/C: 47.9%
[30]
  viability, T/C: 13.5%
[31]
  viability, T/C: 86.7%
[32]
  viability, T/C: 66.5%
[33]
  viability, T/C: 72.4%
[34]
  viability, T/C: 62.3%
[35]
  viability, T/C: 51.4%
[36]
  viability, T/C: 3.12%

## C=CC(=O)N1CCN(c2nc(=O)n(-c3c(C)ccnc3C(C)C)c3nc(-c4c(O)cccc4F)c(F)cc23)C(C)C1 (stereo unspecified) + Cc1c(S(C)(=O)=O)c(-c2cc(F)cc(N3CCN(c4ccc(NS(=O)(=O)c5ccc(NC(CCN6CCC(C(=O)OCCCP(=O)(O)O)CC6)CSc6ccccc6)c(S(=O)(=O)C(F)(F)F)c5)cc4)CC3)c2)c(-c2ccc(Cl)cc2)n1C(C)C
Second compound 0.0316 µM
  IC50: > 10 µM
Second compound 0.1 µM
  IC50: > 10 µM
Second compound 0.316 µM
  IC50: > 10 µM
Second compound 1 µM
  IC50: > 10 µM
Second compound 3.16 µM
  IC50: > 10 µM
Second compound 10 µM
  IC50: 0.0316 µM
[1]
  viability, T/C: 93.5%
[2]
  viability, T/C: 97.2%
[3]
  viability, T/C: 83.9%
[4]
  viability, T/C: 79.4%
[5]
  viability, T/C: 83.8%
[6]
  viability, T/C: 70.9%
[7]
  viability, T/C: 84.2%
[8]
  viability, T/C: 84.3%
[9]
  viability, T/C: 82.5%
[10]
  viability, T/C: 89.5%
[11]
  viability, T/C: 87.7%
[12]
  viability, T/C: 77%
[13]
  viability, T/C: 89.7%
[14]
  viability, T/C: 86.6%
[15]
  viability, T/C: 76.2%
[16]
  viability, T/C: 75.5%
[17]
  viability, T/C: 68.7%
[18]
  viability, T/C: 66.1%
[19]
  viability, T/C: 62.6%
[20]
  viability, T/C: 58.5%
[21]
  viability, T/C: 72.4%
[22]
  viability, T/C: 69.5%
[23]
  viability, T/C: 87.9%
[24]
  viability, T/C: 73.6%
[25]
  viability, T/C: 72.8%
[26]
  viability, T/C: 77.9%
[27]
  viability, T/C: 64%
[28]
  viability, T/C: 60.6%
[29]
  viability, T/C: 56.3%
[30]
  viability, T/C: 68.9%
[31]
  viability, T/C: 52.9%
[32]
  viability, T/C: 53.7%
[33]
  viability, T/C: 46.9%
[34]
  viability, T/C: 55.3%
[35]
  viability, T/C: 83.2%
[36]
  viability, T/C: 63.7%

## CCN1C(C(=O)NC23CCC(C(=O)O)(CC2)CC3)C(c2cccc(Cl)c2F)C2(C(=O)Nc3cc(Cl)ccc32)C12CCCCC2 (stereo unspecified) + Cc1c(S(C)(=O)=O)c(-c2cc(F)cc(N3CCN(c4ccc(NS(=O)(=O)c5ccc(NC(CCN6CCC(C(=O)OCCCP(=O)(O)O)CC6)CSc6ccccc6)c(S(=O)(=O)C(F)(F)F)c5)cc4)CC3)c2)c(-c2ccc(Cl)cc2)n1C(C)C
Second compound 0.0316 µM
  IC50: > 3 µM
Second compound 0.1 µM
  IC50: > 3 µM
Second compound 0.316 µM
  IC50: > 3 µM
Second compound 1 µM
  IC50: > 3 µM
Second compound 3.16 µM
  IC50: > 3 µM
Second compound 10 µM
  IC50: 0.748 µM
Second compound 0.0316 µM, first compound 0.00949 µM
  viability, T/C: 74.8%
Second compound 0.0316 µM, first compound 0.03 µM
  viability, T/C: 50%
Second compound 0.0316 µM, first compound 0.0949 µM
  viability, T/C: 76.3%
Second compound 0.0316 µM, first compound 0.3 µM
  viability, T/C: 79.4%
Second compound 0.0316 µM, first compound 0.949 µM
  viability, T/C: 61.8%
Second compound 0.0316 µM, first compound 3 µM
  viability, T/C: 79.5%
Second compound 0.1 µM, first compound 0.00949 µM
  viability, T/C: 83.2%
Second compound 0.1 µM, first compound 0.03 µM
  viability, T/C: 104%
Second compound 0.1 µM, first compound 0.0949 µM
  viability, T/C: 84%
Second compound 0.1 µM, first compound 0.3 µM
  viability, T/C: 87.6%
Second compound 0.1 µM, first compound 0.949 µM
  viability, T/C: 55.4%
Second compound 0.1 µM, first compound 3 µM
  viability, T/C: 71%
Second compound 0.316 µM, first compound 0.00949 µM
  viability, T/C: 80.8%
Second compound 0.316 µM, first compound 0.03 µM
  viability, T/C: 95.1%
Second compound 0.316 µM, first compound 0.0949 µM
  viability, T/C: 84.9%
Second compound 0.316 µM, first compound 0.3 µM
  viability, T/C: 78%
Second compound 0.316 µM, first compound 0.949 µM
  viability, T/C: 65.7%
Second compound 0.316 µM, first compound 3 µM
  viability, T/C: 54.1%
Second compound 1 µM, first compound 0.00949 µM
  viability, T/C: 67.7%
Second compound 1 µM, first compound 0.03 µM
  viability, T/C: 69.4%
Second compound 1 µM, first compound 0.0949 µM
  viability, T/C: 75.5%
Second compound 1 µM, first compound 0.3 µM
  viability, T/C: 56%
Second compound 1 µM, first compound 0.949 µM
  viability, T/C: 93.4%
Second compound 1 µM, first compound 3 µM
  viability, T/C: 49.8%
Second compound 3.16 µM, first compound 0.00949 µM
  viability, T/C: 57.5%
Second compound 3.16 µM, first compound 0.03 µM
  viability, T/C: 56.8%
Second compound 3.16 µM, first compound 0.0949 µM
  viability, T/C: 73.6%
Second compound 3.16 µM, first compound 0.3 µM
  viability, T/C: 46.8%
Second compound 3.16 µM, first compound 0.949 µM
  viability, T/C: 49.3%
Second compound 3.16 µM, first compound 3 µM
  viability, T/C: 60.9%
Second compound 10 µM, first compound 0.00949 µM
  viability, T/C: 55.2%
Second compound 10 µM, first compound 0.03 µM
  viability, T/C: 65.4%
Second compound 10 µM, first compound 0.0949 µM
  viability, T/C: 30.6%
Second compound 10 µM, first compound 0.3 µM
  viability, T/C: 71.8%
Second compound 10 µM, first compound 0.949 µM
  viability, T/C: 43.1%
Second compound 10 µM, first compound 3 µM
  viability, T/C: 36.7%
